Assay results from patent US20040156869A1, “2-substituted quinazolin-4-ylamine analogues” (Neurogen Corporation, priority 2002, published 2004).

What follows are compounds tested against human capsaicin receptor (VR1) (Homo sapiens, UniProt Q8NER1) (assay: Capsaicin receptor binding assay ([3H]RTX competition, VR1-transfected HEK293 membranes)).
human capsaicin receptor (VR1), sequence (Q8NER1 whole entry): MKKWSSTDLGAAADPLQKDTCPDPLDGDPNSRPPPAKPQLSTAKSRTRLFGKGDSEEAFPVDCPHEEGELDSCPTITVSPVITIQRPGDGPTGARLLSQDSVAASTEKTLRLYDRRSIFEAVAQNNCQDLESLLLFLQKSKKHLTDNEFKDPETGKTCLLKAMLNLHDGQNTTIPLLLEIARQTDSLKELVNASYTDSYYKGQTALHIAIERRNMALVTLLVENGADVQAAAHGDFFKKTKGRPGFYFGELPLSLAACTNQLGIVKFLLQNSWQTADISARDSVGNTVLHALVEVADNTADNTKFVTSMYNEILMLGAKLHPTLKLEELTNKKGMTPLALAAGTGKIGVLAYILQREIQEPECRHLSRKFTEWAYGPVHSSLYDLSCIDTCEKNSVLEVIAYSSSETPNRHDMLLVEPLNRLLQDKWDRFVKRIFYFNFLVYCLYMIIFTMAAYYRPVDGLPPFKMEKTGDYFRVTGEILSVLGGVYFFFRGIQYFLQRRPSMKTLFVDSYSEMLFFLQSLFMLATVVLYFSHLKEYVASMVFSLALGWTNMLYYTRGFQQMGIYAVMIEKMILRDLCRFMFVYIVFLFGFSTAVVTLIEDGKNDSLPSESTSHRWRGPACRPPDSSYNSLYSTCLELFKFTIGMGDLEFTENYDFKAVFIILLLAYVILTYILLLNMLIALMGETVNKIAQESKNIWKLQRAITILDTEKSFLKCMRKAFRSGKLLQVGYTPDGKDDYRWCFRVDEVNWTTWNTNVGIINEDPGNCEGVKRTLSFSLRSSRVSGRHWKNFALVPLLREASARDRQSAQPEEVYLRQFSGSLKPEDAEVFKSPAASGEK

Ki, < 1000 nM:
CC(C)c1ccc(Nc2nc(CN3C[C@H](C)O[C@@H](C)C3)nc3cc(-c4ncccc4C(F)(F)F)ccc23)cc1 [Compound 640, (S,S)-[2-(2,6-Dimethyl-morpholin-4-ylmethyl)-7-(3-trifluoromethyl-pyridin-2-yl)-quinazolin-4-yl]-(4-isopropyl-phenyl)-amine]
CCc1ccc(Nc2nc(CN3C[C@H](C)O[C@@H](C)C3)nc3cc(-c4ncccc4C(F)(F)F)ccc23)cc1 [Compound 641, (S,S)-[2-(2,6-Dimethyl-morpholin-4-ylmethyl)-7-(3-trifluoromethyl-pyridin-2-yl)-quinazolin-4-yl]-(4-ethyl-phenyl)-amine]
C[C@H]1CN(Cc2nc(Nc3ccc(Cl)cc3)c3ccc(-c4ncccc4C(F)(F)F)cc3n2)C[C@H](C)O1 [Compound 642, (S,S)-(4-Chloro-phenyl)-[2-(2,6-dimethyl-morpholin-4-ylmethyl)-7-(3-trifluoromethyl-pyridin-2-yl)-quinazolin-4-yIl]amine]
CC(C)S(=O)(=O)c1ccc(Nc2nc(CN3C[C@H](C)O[C@@H](C)C3)nc3cc(-c4ncccc4C(F)(F)F)ccc23)cc1 [Compound 643, (S,S)-[2-(2,6-Dimethyl-morpholin-4-ylmethyl)-7-(3-trifluoromethyl-pyridin-2-yl)-quinazolin-4-yl]-[4-(propane-2-sulfonyl)-phenyl]-amine]
C[C@H]1CN(Cc2nc(Nc3ccc(Cl)cc3)c3ccc(-c4ncccc4Cl)cc3n2)C[C@H](C)O1 [Compound 644, (S,S)-(4-Chloro-phenyl)-[7-(3-chloro-pyridin-2-yl)-2-(2,6-dimethyl-morpholin-4-ylmethyl)-quinazolin-4-yl]-amine]
CC(C)S(=O)(=O)c1ccc(Nc2nc(CN3C[C@H](C)O[C@@H](C)C3)nc3cc(-c4ncccc4Cl)ccc23)cc1 [Compound 645, (S,S)-[7-(3-Chloro-pyridin-2-yl)-2-(2,6-dimethyl-morpholin-4-ylmethyl)-quinazolin-4-yl]-[4-(propane-2-sulfonyl)-phenyl]-amine]
CC(C)S(=O)(=O)c1ccc(Nc2nc(CN3CCO[C@@H](C)C3)nc3cc(-c4ncccc4Cl)ccc23)cc1 [Compound 646, (S)-[7-(3-Chloro-pyridin-2-yl)-2-(2-methyl-morpholin-4-ylmethyl)-quinazolin-4-yl]-[4-(propane-2-sulfonyl)-phenyl]-amine]
C[C@H]1CN(Cc2nc(Nc3ccc(C(C)(C)C)cc3)c3ccc(-c4ncccc4Cl)cc3n2)CCO1 [Compound 647, (S)-(4-tert-Butyl-phenyl)-[7-(3-chloro-pyridin-2-yl)-2-(2-methyl-morpholin-4-ylmethyl)-quinazolin-4-yl]-amine]
CC(C)c1ccc(Nc2nc(CN3CCO[C@@H](C)C3)nc3cc(-c4ncccc4Cl)ccc23)cc1 [Compound 648, (S)-[7-(3-Chloro-pyridin-2-yl)-2-(2-methyl-morpholin-4-ylmethyl)-quinazolin-4-yl]-(4-isopropyl-phenyl)-amine]
C[C@H]1CN(Cc2nc(Nc3ccc(C(C)(C)C)cc3)c3ccc(-c4ncccc4Cl)cc3n2)C[C@H](C)O1 [Compound 649, (S,S)-(4-tert-Butyl-phenyl)-[7-(3-chloro-pyridin-2-yl)-2-(2,6-dimethyl-morpholin-4-ylmethyl)-quinazolin-4-yl]-amine]
CC(C)c1ccc(Nc2nc(CN3C[C@H](C)O[C@@H](C)C3)nc3cc(-c4ncccc4Cl)ccc23)cc1 [Compound 650, (S,S)-[7-(3-Chloro-pyridin-2-yl)-2-(2,6-dimethyl-morpholin-4-ylmethyl)-quinazolin-4-yl]-(4-isopropyl-phenyl)-amine]
CCc1ccc(Nc2nc(CN3C[C@H](C)O[C@@H](C)C3)nc3cc(-c4ncccc4Cl)ccc23)cc1 [Compound 651, (S,S)-[7-(3-Chloro-pyridin-2-yl)-2-(2,6-dimethyl-morpholin-4-ylmethyl)-quinazolin-4-yl]-(4-ethyl-phenyl)-amine]
CC(C)c1ccc(Nc2nc(CN3C[C@@H](C)O[C@H](C)C3)nc3cc(-c4ncccc4C(F)(F)F)ccc23)cc1 [Compound 652, (R,R)-[2-(2,6-Dimethyl-morpholin-4-ylmethyl)-7-(3-trifluoromethyl-pyridin-2-yl)-quinazolin-4-yl]-(4-isopropyl-phenyl)-amine]
C[C@@H]1CN(Cc2nc(Nc3ccc(Cl)cc3)c3ccc(-c4ncccc4C(F)(F)F)cc3n2)C[C@@H](C)O1 [Compound 654, (R,R)-(4-Chloro-phenyl)-[2-(2,6-dimethyl-morpholin-4-ylmethyl)-7-(3-trifluoromethyl-pyridin-2-yl)-quinazolin-4-yl]-amine]
CC(C)S(=O)(=O)c1ccc(Nc2nc(CN3C[C@@H](C)O[C@H](C)C3)nc3cc(-c4ncccc4C(F)(F)F)ccc23)cc1 [Compound 655, (R,R)-[2-(2,6-Dimethyl-morpholin-4-ylmethyl)-7-(3-trifluoromethyl-pyridin-2-yl)-quinazolin-4-yl]-[4-(propane-2-sulfonyl)-phenyl]-amine]
O=C(OCc1ccccc1)N1CCC[C@H]1c1nc(Nc2ccc(C(F)(F)F)cc2)c2ccc(-c3ncccc3C(F)(F)F)cc2n1 [Compound 656, (S)-2-[4-(4-Trifluoromethyl-phenylamino)-7-(3-trifluoromethyl-pyridin-2-yl)-quinazolin-2-yl]-pyrrolidine-1-carboxylic acid benzyl ester]
C[C@@H]1CN(Cc2nc(Nc3ccc(C(F)(F)F)cc3)c3ncc(-c4ncccc4C(F)(F)F)cc3n2)C[C@@H](C)O1 [Compound 657, (R,R)-[2-(2,6-Dimethyl-morpholin-4-ylmethyl)-7-(3-trifluoromethyl-pyridin-2-yl)-pyrido[3,2-d]pyrimidin-4-yl]-(4-trifluoromethyl-phenyl)-amine]
C[C@H]1CN(Cc2nc(Nc3ccc(C(F)(F)F)cc3)c3ncc(-c4ncccc4C(F)(F)F)cc3n2)C[C@H](C)O1 [Compound 658, (S,S)-[2-(2,6-Dimethyl-morpholin-4-ylmethyl)-7-(3-trifluoromethyl-pyridin-2-yl)-pyrido[3,2-d]pyrimidin-4-yl]-(4-trifluoromethyl-phenyl)-amine]
FC(F)(F)c1ccc(Nc2nc(CN3CCCCCC3)nc3cc(-c4ncccc4C(F)(F)F)cnc23)cc1 [Compound 659, [2-Azepan-1-ylmethyl-7-(3-trifluoromethyl-pyridin-2-yl)-pyrido[3,2-d]pyrimidin-4-yl]-(4-trifluoromethyl-phenyl)-amine]
FC(F)(F)c1ccc(Nc2nc(CN3CCSCC3)nc3cc(-c4ncccc4C(F)(F)F)cnc23)cc1 [Compound 660, [2-Thiomorpholin-4-ylmethyl-7-(3-trifluoromethyl-pyridin-2-yl)-pyrido[3,2-d]pyrimidin-4-yl]-(4-trifluoromethyl-phenyl)-amine]
CC1(C)CCCN(Cc2nc(Nc3ccc(C(F)(F)F)cc3)c3ncc(-c4ncccc4C(F)(F)F)cc3n2)C1 [Compound 661, [2-(3,3-Dimethyl-piperidin-1-ylmethyl)-7-(3-trifluoromethyl-pyridin-2-yl)-pyrido[3,2-d]pyrimidin-4-yl]-(4-trifluoromethyl-phenyl)-amine]
C=CCN(C)Cc1nc(Nc2ccc(C(F)(F)F)cc2)c2ncc(-c3ncccc3C(F)(F)F)cc2n1 [Compound 662, [2-[(Allyl-methyl-amino)-methyl]-7-(3-trifluoromethyl-pyridin-2-yl)-pyrido[3,2-d]pyrimidin-4-yl]-(4-trifluoromethyl-phenyl)-amine]
C=CCN(CC=C)Cc1nc(Nc2ccc(C(F)(F)F)cc2)c2ncc(-c3ncccc3C(F)(F)F)cc2n1 [Compound 663, [2-Diallylaminomethyl-7-(3-trifluoromethyl-pyridin-2-yl)-pyrido[3,2-d]pyrimidin-4-yl]-(4-trifluoromethyl-phenyl)-amine]
CCCN(CCC)Cc1nc(Nc2ccc(C(F)(F)F)cc2)c2ncc(-c3ncccc3C(F)(F)F)cc2n1 [Compound 664, [2-Dipropylaminomethyl-7-(3-trifluoromethyl-pyridin-2-yl)-pyrido[3,2-d]pyrimidin-4-yl]-(4-trifluoromethyl-phenyl)-amine]
CCCN(Cc1nc(Nc2ccc(C(F)(F)F)cc2)c2ncc(-c3ncccc3C(F)(F)F)cc2n1)CC1CC1 [Compound 665, [2-[(Cyclopropylmethyl-propyl-amino)-methyl]-7-(3-trifluoromethyl-pyridin-2-yl)-pyrido[3,2-d]pyrimidin-4-yl]-(4-trifluoromethyl-phenyl)-amine]
CCCCN(CCCC)Cc1nc(Nc2ccc(C(F)(F)F)cc2)c2ncc(-c3ncccc3C(F)(F)F)cc2n1 [Compound 666, [2-Dibutylaminomethyl-7-(3-trifluonmethyl-pyridin-2-yl)-pyrido[3,2-d]pyrimidin-4-yl]-(4-trifluoromethyl-phenyl)-amine]
C=C(C)CN(CC)Cc1nc(Nc2ccc(C(F)(F)F)cc2)c2ncc(-c3ncccc3C(F)(F)F)cc2n1 [Compound 667, [2-{[Ethyl-(2-methyl-allyl)-amino]-methyl}-7-(3-trifluoromethyl-pyridin-2-yl)-pyrido[3,2-d]pyrimidin-4-yl]-(4-trifluoromethyl-phenyl)-amine]
C[C@@H]1C[C@H](C)CN(Cc2nc(Nc3ccc(C(F)(F)F)cc3)c3ncc(-c4ncccc4C(F)(F)F)cc3n2)C1 [Compound 668, [2-(3,5-Dimethyl-piperidin-1-ylmethyl)-7-(3-trifluoromethyl-pyridin-2-yl)-pyrido[3,2-d]pyrimidin-4-yl]-(4-trifluoromethyl-phenyl)-amine (cis)]
CC1CCCN(Cc2nc(Nc3ccc(C(F)(F)F)cc3)c3ncc(-c4ncccc4C(F)(F)F)cc3n2)C1 (centres unmarked) [Compound 669, [2-(3-Methyl-piperidin-1-ylmethyl)-7-(3-trifluoromethyl-pyridin-2-yl)-pyrido[3,2-d]pyrimidin-4-yl]-(4-trifluoromethyl-phenyl)-amine]
